According to US6280760A, “Peptide-coated implants and methods for producing same” (Merck Patent Gesellschaft mit beschraenkter Haftung, priority 1997, dated 2001):

Test system: MC3T3 H1 osteoblasts
Test: Adhesion of MC3T3 H1 osteoblasts to V4A stainless steel shaped articles coated with acrylate peptide 3
Assay type: cell-based, mouse
Conditions: for maximum adhesion rates: V4A stainless steel
Method: For testing the cell adhesion of osteoblasts to peptide-coated metal surfaces, V4A stainless steel shaped articles (7×7×1 mm^3) were provided with three different coating variants and in each case then coated in turn with RGD peptides. To do this, first the stainless steel shaped articles were incubated in an ultrasonic bath at 60° C. for 15 min for the purpose of cleaning, rinsed with demineralized water, incubated in acetone for 30 min, rinsed again with demineralized water and incubated at 60° C. for 24 hours for drying.
The stainless steel platelets were then coated by means of three variants:
The Kevloc® primer solution was thinly applied and incubated at room temperature for 3 min. Then the Kevloc® bond solution was likewise thinly applied and activated in a kiln at 180° C. for 20 min.
Since this coating variant directly makes available free acrylate radicals on the metal surface, it was then possible to directly covalently couple the acrylate peptide 3, types iiia, as was described in Example 3 for polymerized PMMA-bone cement.
The Siliseal® solution was thinly applied and dried at room temperature for 5 min. Then the Sililink solution was likewise thinly applied and activated in the kiln at 320° C. for 3 min.
To make available acrylate radicals on the coated metal surfaces, the pretreated stainless steel shaped articles were immersed in demineralized water heated to 75° C., adjusted to pH about 8.00 using NaOH. A 1% 3-methacryloxypropyltrimethoxysilane solution (Huls AG, Germany) was then metered in with strirring over a period of one hour until a pH of about 6.50 was achieved. The mixture was then stirred at 75° C. for one hour; the pH at this time was about 6.35.
The bonding of acrylate peptide 3, type iiia, was carried out as described in Example 3 for polymerized PMMA bone cement.
For this, the stainless steel shaped articles were immersed in demineralized water heated to 75° C., adjusted to pH about 8.00 using NaOH, and an AlCl3 solution was metered in with stirring over a period of two hours. Then a 5% sodium silicate solution was likewise metered in with stirring over two hours. In the following step, a 1% 3-methacryloxypropyltrimethoxysilane solution (Huls AG, Germany) was metered in with stirring in the course of one hour. The mixture was then stirred at 75° C. for one hour; the pH was at this time about 6.40.
After the stainless steel shaped articles had been coated with acrylate peptide 3, type iiia, by means of three different processes, the adhesion of osteoblasts of the line MC3T3 H1 was investigated. To do this, a procedure as described in Example 3 was used.

EC50 (all three coating variants, read-out: half-maximal cell bindings, RGD peptide concentration in the coating solution): 1 to 100 nM
Substance: cyclo(RGDf[acrylic-ahx-tEG-K]) [acrylate peptide 3]
maximum adhesion rates (Kevloc process): about 80%
maximum adhesion rates (Silicoater process): about 80%
maximum adhesion rates (pigment coating): about 60%
